Columns and labels:
PRMT5 [1] = target: T1, PRMT5 (Homo sapiens, UniProt O14744); experiment: PRMT5 inhibition assay with MTA as cofactor; format: biochemical; conditions: for IC50: against PRMT5 with MTA as cofactor; for SAM/MTA Ratio: ratio of Ki in the presence of SAM to Ki in the presence of MTA, Ki=IC50/1.5 (SAM), Ki=IC50/13.5 (MTA)
T1 construct: purchased Viva (custom protein)
From the text: (§1) The Ki values can be calculated from the IC50 values as described in the Examples section. As detailed in the Examples section, for the assay performed in the presence of SAM, IC50=Ki×1.5 (Ki=IC50/1.5). For the assay performed in the presence of MTA, IC50=Ki×13.5 (Ki=IC50/13.5). Column 6 indicates the ratio between the Ki of compounds in the presence of SAM and the Ki of compounds in the presence of MTA

[2] = test system: HAP1 MTAP-intact cell line; experiment: SDMA in-cell western assay, HAP1 MTAP-intact; format: cell-based; conditions: Homo sapiens
How it was run: (§2)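 IC50 values come from an SDMA in-cell western run in isogenic HAP1 cells, either MTAP-null or expressing endogenous MTAP. The intact-to-deleted IC50 ratio is used to score MTAP selectivity.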

PRMT5 [3] = target: T1, PRMT5; experiment: PRMT5 inhibition assay with no cofactor; format: biochemical; conditions: against PRMT5 with no cofactor; read-out: No Co-factor IC50
[4] = test system: HAP1 MTAP-deleted cell line; experiment: SDMA in-cell western assay, HAP1 MTAP-deleted; format: cell-based; conditions: for IC50: Homo sapiens, HAP1 MTAP-deleted (MTAP-null) cell line; for MTAP Intact/Deleted Ratio: IC50 ratio HAP1 MTAP-intact / HAP1 MTAP-deleted, >=3 fold considered MTAP-selective
How it was run: as §2

PRMT5 [5] = target: T1, PRMT5; experiment: PRMT5 inhibition assay with SAM as cofactor; format: biochemical; conditions: against PRMT5 in the presence of SAM as cofactor
From the text: as §1

T1 sequence (O14744 whole entry): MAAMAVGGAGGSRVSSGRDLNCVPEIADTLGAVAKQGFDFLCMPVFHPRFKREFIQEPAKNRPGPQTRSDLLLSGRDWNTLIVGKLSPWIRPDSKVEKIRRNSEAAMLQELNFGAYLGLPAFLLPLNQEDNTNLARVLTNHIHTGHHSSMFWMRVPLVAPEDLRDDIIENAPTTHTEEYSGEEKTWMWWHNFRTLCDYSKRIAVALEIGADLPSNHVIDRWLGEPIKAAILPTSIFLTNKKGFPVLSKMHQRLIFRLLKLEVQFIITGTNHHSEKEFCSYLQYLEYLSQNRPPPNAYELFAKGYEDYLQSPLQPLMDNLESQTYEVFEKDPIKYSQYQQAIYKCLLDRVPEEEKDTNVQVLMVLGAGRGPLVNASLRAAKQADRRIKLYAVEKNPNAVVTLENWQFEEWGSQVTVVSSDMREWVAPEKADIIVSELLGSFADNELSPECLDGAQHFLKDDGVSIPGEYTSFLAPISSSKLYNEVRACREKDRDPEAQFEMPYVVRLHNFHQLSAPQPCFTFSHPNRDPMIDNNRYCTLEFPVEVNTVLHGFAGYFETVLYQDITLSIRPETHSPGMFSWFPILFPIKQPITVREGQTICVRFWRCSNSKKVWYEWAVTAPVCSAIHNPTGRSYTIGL
T1 sequence (Q9BQA1 whole entry partner): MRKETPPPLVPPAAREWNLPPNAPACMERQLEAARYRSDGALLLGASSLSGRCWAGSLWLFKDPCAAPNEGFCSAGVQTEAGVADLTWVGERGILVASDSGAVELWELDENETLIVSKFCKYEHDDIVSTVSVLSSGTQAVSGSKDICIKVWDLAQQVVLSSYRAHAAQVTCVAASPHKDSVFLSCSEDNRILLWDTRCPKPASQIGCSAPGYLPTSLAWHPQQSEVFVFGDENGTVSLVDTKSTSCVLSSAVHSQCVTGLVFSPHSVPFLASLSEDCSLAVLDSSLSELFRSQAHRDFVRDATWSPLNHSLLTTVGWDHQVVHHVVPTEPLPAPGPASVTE

SMILES | IC50 (PRMT5 [1]) | IC50 [2] | IC50 (PRMT5 [3]) | IC50 [4] | IC50 (PRMT5 [5]) | SAM/MTA Ratio (PRMT5 [1]) | MTAP Intact/Deleted Ratio [4]
COCCN(C)c1cc(C(=O)NC[C@@H](O)[C@@H]2Cc3ccc(OCc4ocnc4C)cc3CN2)cc(NC2CCC2)n1 [Compound 33, 2-(cyclobutylamino)-N—((R)-2-hydroxy-2-((S)-7-((4-methyloxazol-5-yl)methoxy)-1,2,3,4-tetrahydroisoquinolin-3-yl)ethyl)-6-((2-methoxyethyl)(methyl)amino)isonicotinamide] | 50 to 500 nM | 1000 to 10000 nM | 50 to 500 nM | < 1000 nM | 50 to 500 nM | A (a Ki ratio greater than or equal to 10 fold between the Ki in the presence of SAM and the Ki in the presence of MTA) | B* (an IC50 ratio greater than or equal to 3 fold but lower than 10 fold between the IC50 in the HAP1 MTAP-intact cell line and the HAP1 MTAP-deleted cell line)
CCOc1cc(C(=O)N2C3CCC2COC3)ccc1C(=O)NC[C@@H](O)[C@@H]1Cc2ccc(OCc3ccnn3C)cc2CN1 [Compound 5, 4-(3-oxa-8-azabicyclo[3.2.1]octane-8-carbonyl)-2-ethoxy-N—((R)-2-hydroxy-2-((S)-7-((1-methyl-1H-pyrazol-5-yl)methoxy)-1,2,3,4-tetrahydroisoquinolin-3-yl)ethyl)benzamide] | 50 to 500 nM | < 1000 nM | 500 to 5000 nM | < 1000 nM | 50 to 500 nM | A (a Ki ratio greater than or equal to 10 fold between the Ki in the presence of SAM and the Ki in the presence of MTA) | C* (an IC50 ratio of less than 3 fold between the IC50 in the HAP1 MTAP-intact cell line and the HAP1 MTAP-deleted cell line)

More lines, main results first:

IC50 (PRMT5 [1]) | IC50 [2] | IC50 (PRMT5 [3]) | IC50 [4] | IC50 (PRMT5 [5]) | SMILES | SAM/MTA Ratio (PRMT5 [1]) | MTAP Intact/Deleted Ratio [4]
< 50 nM | ≥ 10000 nM | 500 to 5000 nM | < 1000 nM | 50 to 500 nM | CCOc1nc(N2CCN(C(=O)OC)CC2)ccc1C(=O)NC[C@@H](O)[C@@H]1Cc2ccc(OCc3ccnn3C)cc2CN1 [Compound 18, methyl 4-(6-ethoxy-5-(((R)-2-hydroxy-2-((S)-7-((1-methyl-1H-pyrazol-5-yl)methoxy)-1,2,3,4-tetrahydroisoquinolin-3-yl)ethyl)carbamoyl)pyridin-2-yl)piperazine-1-carboxylate] | A (a Ki ratio greater than or equal to 10 fold between the Ki in the presence of SAM and the Ki in the presence of MTA) | A* (an IC50 ratio greater than or equal to 10 fold between the IC50 in the HAP1 MTAP-intact cell line and the HAP1 MTAP-deleted cell line)
< 50 nM | 1000 to 10000 nM | 50 to 500 nM | < 1000 nM | 50 to 500 nM | CC(=O)N1CC(Nc2cc(C(=O)NC[C@@H](O)[C@@H]3Cc4ccc(OCc5ocnc5C)cc4CN3)nc(N3CC4CCC3C4)n2)C1 (stereo partly drawn) [Compound 53, 6-[(1-acetylazetidin-3-yl)amino]-2-(3-azabicyclo[2.2.1]heptan-3-yl)-N-[(2R)-2-hydroxy-2-[(3S)-7-[(4-methyloxazol-5-yl)methoxy]-1,2,3,4-tetrahydroisoquinolin-3-yl]ethyl]pyrimidine-4-carboxamide] | A (a Ki ratio greater than or equal to 10 fold between the Ki in the presence of SAM and the Ki in the presence of MTA) | A* (an IC50 ratio greater than or equal to 10 fold between the IC50 in the HAP1 MTAP-intact cell line and the HAP1 MTAP-deleted cell line)
< 50 nM | < 1000 nM | 50 to 500 nM | < 1000 nM | 50 to 500 nM | CC(=O)N1CCC(Nc2cc(C(=O)NC[C@@H](O)[C@@H]3Cc4ccc(OCc5ocnc5C)cc4CN3)nc(N3CCCCC3)n2)CC1 [Compound 50, 6-[(1-acetyl-4-piperidyl)amino]-N-[(2R)-2-hydroxy-2-[(3S)-7-[(4-methyloxazol-5-yl)methoxy]-1,2,3,4-tetrahydroisoquinolin-3-yl]ethyl]-2-(1-piperidyl)pyrimidine-4-carboxamide] | A (a Ki ratio greater than or equal to 10 fold between the Ki in the presence of SAM and the Ki in the presence of MTA) | A* (an IC50 ratio greater than or equal to 10 fold between the IC50 in the HAP1 MTAP-intact cell line and the HAP1 MTAP-deleted cell line)

From patent publication US12403137B2, “Compounds and methods of use” (Tango Therapeutics, Inc., priority 2019, dated 2025)
